According to patent US11065226B2, “Combination comprising EP4 antagonist and immune checkpoint inhibitor” (ONO PHARMACEUTICAL CO., LTD., priority 2016, dated 2021):

Experiments:
[1] = system: mouse colorectal cancer cell line MC38; assay: Combination therapy with Example 2-2 and anti-mouse PD-1 antibody in allograft model of MC38; type: in vivo; details: female C57BL/6 mice, Example 2-2 3 mg/kg orally twice a day day 8 to 24, anti-mouse PD-1 antibody i.p. 20 mg/kg day 8, 10 mg/kg day 14 and 20
Method: (§1) The effect of the combination therapy with the compound of Example 2-2 and an anti-mouse PD-1 antibody was evaluated in an allograft model of a mouse colorectal cancer cell line, MC38 (Cancer Res. (1975), 35(9), p 2434-9). The MC38 cells were cultured in a DMEM medium containing 10 vol % FBS, 100 units/mL penicillin, and 100 μg/mL streptomycin in a CO2 incubator. On the day of transplantation, the culture supernatant was removed, and then the MC38 cells were washed with PBS and collected. The collected MC38 cells were suspended in PBS and used as transplant cells. Under anesthesia, 1,000,000 transplant cells were subcutaneously transplanted into the right lateral abdominal regions of female C57BL/6 mice. On day 8 after the transplantation, the mice were divided into four groups of a vehicle group, an Example 2-2 compound-single therapy group, an anti-mouse PD-1 antibody-single therapy group, and a combination therapy group (the compound of Example 2-2 and the anti-mouse PD-1 antibody), each containing 10 individuals. […] The tumor volumes (mm^3) were calculated by the following equation from the tumor lengths along the minor axis and the major axis which were measured using a digital caliper. […]

[2] = target: T1, rat EP4 receptor (Rattus norvegicus, UniProt P43114); assay: EP4 antagonistic activity measurement using prostanoid receptor subtype-expressing cells (cAMP, PGE2 10 nM); type: cell-based; details: CHO cells expressing rat EP4 receptor; inhibition of cAMP production by PGE2 10 nM; 30 minutes at room temperature
T1 construct: expressed in transfected cells; host or cells: CHO cells
T1 sequence (P43114 whole entry): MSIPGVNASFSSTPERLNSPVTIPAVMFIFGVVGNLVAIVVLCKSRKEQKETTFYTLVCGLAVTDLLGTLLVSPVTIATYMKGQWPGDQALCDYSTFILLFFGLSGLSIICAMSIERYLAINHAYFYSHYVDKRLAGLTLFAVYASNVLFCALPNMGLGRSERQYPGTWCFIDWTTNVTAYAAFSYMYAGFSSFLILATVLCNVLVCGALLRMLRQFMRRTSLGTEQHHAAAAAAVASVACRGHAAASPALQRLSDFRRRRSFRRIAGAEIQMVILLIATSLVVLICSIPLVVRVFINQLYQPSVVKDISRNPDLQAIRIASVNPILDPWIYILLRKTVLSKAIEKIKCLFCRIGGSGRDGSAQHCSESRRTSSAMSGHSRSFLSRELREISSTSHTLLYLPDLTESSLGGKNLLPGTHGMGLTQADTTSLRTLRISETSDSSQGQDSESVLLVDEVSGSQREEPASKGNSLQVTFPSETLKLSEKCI
Method: CHO cells expressing rat EP4 receptor subtypes were prepared according to the methods of Nishigaki et al. (Non-Patent Document 4) and used for experiment. Cultured subconfluent cells were detached and suspended in an assay medium (MEM containing 1 mmol/L IBMX, 1% HSA) in a concentration of 1×10^6 cells/mL. To start the reaction, PGE2 was added to the cell suspension (25 μL) in a final concentration of 10 nmol/L, either alone or as a 25-μL PGE2 solution containing a test compound. After 30 minutes of reaction at room temperature, the amount of cAMP in the cells was quantified according to the method in the descriptions of the cAMP assay kit (CISBIO).
The antagonistic effect (IC50 value) of the test compound was calculated as a value that represents an inhibition rate against a reaction with PGE2 alone at 10 nM, a concentration that produces a submaximal cAMP producing effect.

[3] = system: mouse colorectal cancer cell line CT26; assay: Combination therapy with Example 2-13 and anti-mouse PD-1 antibody in allograft model of CT26; type: in vivo; details: female BALB/c mice, Example 2-13 5 mg/kg orally twice a day day 7 to 21, anti-mouse PD-1 antibody i.p. 3 mg/kg day 7, 10, 14, 17
Method: (§2) The effect of the combination therapy with the compound of Example 2-13 and an anti-mouse PD-1 antibody was evaluated in an allograft model of a mouse colorectal cancer cell line, CT26 (Cancer Res. (2013), 73(12), p3591-603). The CT26 cells were cultured using a RPMI medium containing 10 vol % FBS, 2 mmol/L Glutamax, 100 units/mL penicillin, and 100 μg/mL streptomycin in a CO2 incubator. On the day of transplantation, the culture supernatant was removed, and then the CT26 cells were washed with PBS and collected. The collected CT26 cells were suspended in PBS and used as transplant cells. Under anesthesia, 1,000,000 transplant cells were subcutaneously transplanted into the right lateral abdominal regions of female BALB/c mice. On day 7 after the transplantation, the mice were divided into four groups of a vehicle group, an Example 2-13 compound-single therapy group, an anti-mouse PD-1 antibody-single therapy group, and a combination therapy group (the compound of Example 2-13 and the anti-mouse PD-1 antibody), each containing 15 to 18 individuals. […] The tumor volumes (mm^3) were calculated by the following equation from the tumor lengths along the minor axis and the major axis and the tumor height which were measured using a digital caliper. […]

[4] = system: mouse colorectal cancer cell line MC38; assay: Combination therapy with Example 2-13 and anti-mouse PD-1 antibody in allograft model of MC38; type: in vivo; details: female C57BL/6 mice
Method: as §1, with “Example 2-13” for “Example 2-2”, “and 100}μg/mL” for “and 100 μg/mL”, “anesthesia, 200,000” for “anesthesia, 1,000,000”, “day 7” for “day 8”

[5] = system: mouse colorectal cancer cell line MC38; assay: Combination therapy with Example 2-13 and anti-mouse CTLA-4 antibody in allograft model of MC38; type: in vivo; details: female C57BL/6 mice, Example 2-13 5 mg/kg orally twice a day day 7 to 28, anti-mouse CTLA-4 antibody i.p. 10 mg/kg day 7, 10, 14, 17
Method: as §2, with “CTLA-4” for “PD-1”, “MC38.” for “CT26 (Cancer Res. (2013), 73(12), p3591-603).”, “MC38” for “CT26”, “DMEM” for “RPMI”, “C57BL/6” for “BALB/c”, “15” for “15 to 18”

[6] = system: mouse fibrosarcoma cell line SalN; assay: Combination therapy with Example 2-13 and anti-mouse PD-1 antibody in allograft model of SalN; type: in vivo; details: female A/J mice, Example 2-13 5 mg/kg orally twice a day day 7 to 21, anti-mouse PD-1 antibody i.p. 3 mg/kg day 7, 10, 14, 17
Method: The effect of the combination therapy with the compound of Example 2-13 and an anti-mouse PD-1 antibody was evaluated in an allograft model of a mouse fibrosarcoma cell line, SalN (Cancer Res. (2012), 72(4), p 917-27). The SalN cells were cultured using a DMEM medium containing 10 vol % FBS, 2 mmol/L Glutamax, 100 units/mL penicillin, and 100 μg/mL streptomycin in a CO2 incubator. On the day of transplantation, the culture supernatant was removed, and then the SalN cells were washed with PBS and collected. The collected SalN cells were suspended in PBS and used as transplant cells. Under anesthesia, 2,000,000 transplant cells were subcutaneously transplanted into the right lateral abdominal regions of female A/J mice. On day 7 after the transplantation, the mice were divided into four groups of a vehicle group, an Example 2-13 compound-single therapy group, an anti-mouse PD-1 antibody-single therapy group, and a combination therapy group (the compound of Example 2-13 and the anti-mouse PD-1 antibody), each containing 15 individuals. […] The tumor volumes (mm^3) were calculated by the following equation from the tumor lengths along the minor axis and the major axis and the tumor height which were measured using a digital caliper. […]

## COCCNC(=O)c1ccc2c(c1)[C@]1(CCO2)C[C@H]1C(=O)Nc1cc(C#N)ccc1CCCC(=O)O [Example 2-2]
[1]
  tumor growth (tumor volume, FIG. 2): inhibited the tumor growth alone

## Cn1cc(NC(=O)c2ccc3c(c2)[C@]2(CCO3)C[C@H]2C(=O)Nc2cc(C#N)ccc2CCCC(=O)O)cn1 [Example 2-5]
[2]
  IC50: 1.3 nM

## CC(C)NC(=O)c1ccc2c(c1)[C@]1(CCO2)C[C@H]1C(=O)Nc1cc(C#N)ccc1CCCC(=O)O [Example 2-13, 4-[4-cyano-2-({[(2′R,4S)-6-(isopropylcarbamoyl)-2,3-dihydrospiro[chromene-4,1′-cyclopropan]-2′-yl]carbonyl}amino)phenyl]butanoic acid]
[3]
  tumor growth (tumor volume, FIG. 5): inhibited the tumor growth alone
[4]; Example 2-13 3 mg/kg orally twice a day to day 28, anti-mouse PD-1 antibody i.p. 20 mg/kg day 7, 10 mg/kg day 13 and 19
  Cases of Disappearance of Tumor/Cases: 0/10
[4]; Example 2-13 3 mg/kg orally, anti-mouse PD-1 antibody i.p. 20 mg/kg then 10 mg/kg
  tumor growth (tumor volume, FIG. 1): inhibited the tumor growth alone
[5]
  tumor growth (tumor volume, FIG. 3): inhibited the tumor growth alone
[6]
  tumor growth (tumor volume, FIG. 4): inhibited the tumor growth alone
